This experiment relates to P388 leukemia ip, CD2F1 mice, survival T/C. In words: NCI In Vivo Anticancer Drug Screen. Data for tumor model P388 Leukemia (intraperitoneal) in CD2F1 (CDF1) mice. The conditions noted are these: endpoint: median survival time, higher = longer survival. The gist of the method:
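Mice carrying the transplanted tumor received test compound or vehicle. Survival was recorded in each group, and the value is the treated-group measurement divided by that of the vehicle-treated control group.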

[1] abbreviates: dose: 60.0 mg/kg/injection, schedule: Q01DX005 (ip), vehicle: saline with Tween-80.
The mark [2] stands for this setting: dose: 120.0 mg/kg/injection, schedule: Q01DX005 (ip), vehicle: saline with Tween-80.
Where [3] appears, read: dose: 240.0 mg/kg/injection, schedule: Q01DX005 (ip), vehicle: saline with Tween-80.
Setting [4] is: dose: 50.0 mg/kg/injection, schedule: Q01DX009 (ip), vehicle: saline with Tween-80.
The mark [5] stands for this setting: dose: 100.0 mg/kg/injection, schedule: Q01DX009 (ip), vehicle: saline with Tween-80.
The mark [6] stands for this setting: dose: 200.0 mg/kg/injection, schedule: Q01DX009 (ip), vehicle: saline with Tween-80.

Drawing on PubChem BioAssay AID330 (DTP/NCI, 2004), this text covers T/C for nine compounds.

Values joined by “and” are separate entries in the source; they are usually repeats but may differ in a detail not shown here. Equal entries are not always repeated. Inconclusive results and toxic doses are left out.

As to `Nc1ncn(C2OC(CO)C(O)C2O)c(=O)n1` (centres undefined), the T/C is, setting by setting: (dose: 0.19 mg/kg/injection, schedule: Q01DX009 (ip), vehicle: saline with Tween-80) 122 % of control; (dose: 0.38 mg/kg/injection, schedule: Q01DX009 (ip), vehicle: saline with Tween-80) 154 % of control; (dose: 0.75 mg/kg/injection, schedule: Q01DX009 (ip), vehicle: Klucel (hydroxypropylcellulose) (HPC)) 163 % of control; (dose: 0.75 mg/kg/injection, schedule: Q01DX009 (ip), vehicle: saline with Tween-80) 181 % of control; (dose: 0.75 mg/kg/injection, schedule: Q01DX009 (ip), vehicle: saline) 166 % of control and 172 % of control and 173 % of control; (dose: 1.0 mg/kg/injection, schedule: Q01DX005 (ip), vehicle: saline) 172 % of control. Also, the T/C is, setting by setting: (dose: 1.0 mg/kg/injection, schedule: Q01DX005 (ip), vehicle: water) 150 % of control; (dose: 1.5 mg/kg/injection, schedule: Q01DX009 (ip), vehicle: Klucel (hydroxypropylcellulose) (HPC)) 190 % of control; (dose: 1.5 mg/kg/injection, schedule: Q01DX009 (ip), vehicle: saline with Tween-80) 195 % of control; (dose: 1.5 mg/kg/injection, schedule: Q01DX009 (ip), vehicle: saline) 171 % of control and 185 % of control; (dose: 1.56 mg/kg/injection, schedule: Q01DX009 (ip), vehicle: saline) 224 % of control; (dose: 2.0 mg/kg/injection, schedule: Q01DX005 (ip), vehicle: water) 174 % of control. Moreover, the T/C was 209 % of control and 210 % of control (dose: 2.0 mg/kg/injection, schedule: Q01DX009 (ip), vehicle: saline); 162 % of control (dose: 2.59 mg/kg/injection, schedule: Q04DX003 (ip), vehicle: saline); 233 % of control (dose: 2.7 mg/kg/injection, schedule: Q01DX009 (ip), vehicle: saline); 245 % of control (dose: 3.0 mg/kg/injection, schedule: Q01DX009 (ip), vehicle: Klucel (hydroxypropylcellulose) (HPC)); 262 % of control (dose: 3.13 mg/kg/injection, schedule: Q01DX009 (ip), vehicle: saline); 215 % of control (dose: 4.0 mg/kg/injection, schedule: Q01DX005 (ip), vehicle: water). The T/C is, setting by setting: (dose: 4.0 mg/kg/injection, schedule: Q01DX009 (ip), vehicle: saline) 245 % of control and 265 % of control; (dose: 4.32 mg/kg/injection, schedule: Q04DX003 (ip), vehicle: saline) 178 % of control; (dose: 4.5 mg/kg/injection, schedule: Q01DX009 (ip), vehicle: saline) 282 % of control; (dose: 6.0 mg/kg/injection, schedule: Q01DX009 (ip), vehicle: Klucel (hydroxypropylcellulose) (HPC)) 95 % of control; (dose: 7.2 mg/kg/injection, schedule: Q04DX003 (ip), vehicle: saline) 200 % of control; (dose: 8.0 mg/kg/injection, schedule: Q01DX005 (ip), vehicle: saline) 252 % of control and 256 % of control and 290 % of control. The T/C is 66 % of control (dose: 8.0 mg/kg/injection, schedule: Q01DX005 (ip), vehicle: water); 160 % of control (dose: 8.64 mg/kg/injection, schedule: Q04DX002 (ip), vehicle: saline); 247 % of control (dose: 12.0 mg/kg/injection, schedule: Q04DX003 (ip), vehicle: saline); 162 % of control (dose: 12.5 mg/kg/injection, schedule: Q01DX005 (ip), vehicle: saline); 196 % of control (dose: 12.5 mg/kg/injection, schedule: Q01DX009 (ip), vehicle: saline); 175 % of control (dose: 14.4 mg/kg/injection, schedule: Q04DX002 (ip), vehicle: saline). Further, the T/C is, setting by setting: (dose: 16.0 mg/kg/injection, schedule: Q01DX005 (ip), vehicle: saline) 273 % of control; (dose: 20.0 mg/kg/injection, schedule: Q01DX009 (ip), vehicle: saline) 223 % of control; (dose: 20.0 mg/kg/injection, schedule: Q04DX003 (ip), vehicle: saline) 279 % of control; (dose: 24.0 mg/kg/injection, schedule: Q04DX002 (ip), vehicle: saline) 200 % of control; (dose: 25.0 mg/kg/injection, schedule: Q01DX005 (ip), vehicle: saline) 176 % of control; (dose: 25.0 mg/kg/injection, schedule: Q01DX009 (ip), vehicle: saline) 196 % of control. Besides, the T/C is 233 % of control (dose: 33.0 mg/kg/injection, schedule: Q01DX009 (ip), vehicle: saline); 217 % of control (dose: 40.0 mg/kg/injection, schedule: Q04DX002 (ip), vehicle: saline); 178 % of control (dose: 44.0 mg/kg/injection, schedule: Q01DX005 (ip), vehicle: saline); 165 % of control (dose: 49.0 mg/kg/injection, schedule: Q01DX001 (ip), vehicle: saline); 189 % of control (dose: 50.0 mg/kg/injection, schedule: Q01DX005 (ip), vehicle: saline); 215 % of control (dose: 50.0 mg/kg/injection, schedule: Q01DX009 (ip), vehicle: saline). The T/C is, setting by setting: (dose: 67.0 mg/kg/injection, schedule: Q01DX005 (ip), vehicle: saline) 181 % of control; (dose: 100.0 mg/kg/injection, schedule: Q01DX005 (ip), vehicle: saline) 182 % of control and 196 % of control; (dose: 110.0 mg/kg/injection, schedule: Q01DX001 (ip), vehicle: saline) 100 % of control; (dose: 150.0 mg/kg/injection, schedule: Q01DX005 (ip), vehicle: saline) 187 % of control; (dose: 200.0 mg/kg/injection, schedule: Q01DX005 (ip), vehicle: saline) 185 % of control and 214 % of control; (dose: 200.0 mg/kg/injection, schedule: Q01DX009 (ip), vehicle: saline) 110 % of control. For the same compound, under “dose: 400.0 mg/kg/injection, schedule: Q01DX009 (ip), vehicle: saline”, the T/C is 88 % of control.

For the compound `COC(=O)N(c1ccccc1)c1ccccn1`, the T/C is, setting by setting: under setting [1], 106 % of control; under setting [2], 97 % of control; under setting [3], 100 % of control.

For `ClCSc1nc2ccccc2o1`, the T/C by setting is: (dose: 50.0 mg/kg/injection, schedule: Q04DX002 (ip), vehicle: saline with Tween-80) 102 % of control; (dose: 100.0 mg/kg/injection, schedule: Q04DX002 (ip), vehicle: saline with Tween-80) 102 % of control; (dose: 200.0 mg/kg/injection, schedule: Q04DX002 (ip), vehicle: saline with Tween-80) 107 % of control.

As to `CCCCCC1=C/N\C(C#N)=C(C#N)/N=C/C(CCCCC)=C\N\C(C#N)=C(C#N)/N=C\1`, the T/C (dose: 6.25 mg/kg/injection, schedule: Q01DX009 (ip), vehicle: Klucel (hydroxypropylcellulose) (HPC)) was 93 % of control; the T/C (dose: 12.5 mg/kg/injection, schedule: Q01DX009 (ip), vehicle: Klucel (hydroxypropylcellulose) (HPC)) was 93 % of control; the T/C (dose: 25.0 mg/kg/injection, schedule: Q01DX009 (ip), vehicle: Klucel (hydroxypropylcellulose) (HPC)) is 93 % of control.

As to `CC(=O)O/N=C/c1cc[n+](C)cc1`, the T/C is 105 % of control (dose: 25.0 mg/kg/injection, schedule: Q04DX003 (ip), vehicle: saline); 101 % of control (dose: 50.0 mg/kg/injection, schedule: Q04DX003 (ip), vehicle: saline); 90 % of control (dose: 100.0 mg/kg/injection, schedule: Q04DX003 (ip), vehicle: saline).

As to `Cc1nn(CC(=O)O)c(=O)c(C#N)c1-c1ccccc1`, the T/C is, setting by setting: (dose: 62.5 mg/kg/injection, schedule: Q04DX002 (ip), vehicle: other) 116 % of control; (dose: 125.0 mg/kg/injection, schedule: Q04DX002 (ip), vehicle: other) 102 % of control; (dose: 250.0 mg/kg/injection, schedule: Q04DX002 (ip), vehicle: other) 115 % of control; (dose: 500.0 mg/kg/injection, schedule: Q04DX002 (ip), vehicle: other) 109 % of control.

For the compound `CCCCCCCCCC#CC(=O)O`, the T/C by setting is: under setting [4], 95 % of control; under setting [5], 110 % of control; under setting [6], 89 % of control.

Take `CCOC(=O)CCCC(=O)Cl`: the T/C reads like this: under setting [4], 94 % of control; under setting [5], 99 % of control; under setting [6], 96 % of control.

Consider `COC(=O)N1c2ccccc2N(C(=O)OC)C1C#N`, for which the T/C was 108 % of control under setting [1], 98 % of control under setting [2] and 112 % of control under setting [3].
